Experimental data taken from ChEMBL document CHEMBL1201862, “PubChem BioAssay data set” (2004).
Active and inactive are the calls of the source.

Key:
[1] = Shn3 3'UTR reporter inhibitors, dose response, cell-based, Clone20 osteoblasts, firefly luciferase, cherry-picked (AID 624132); type: functional;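 further: firefly luciferase luminescence from reporter carrying the Shn3 3'UTR in osteoblasts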
[2] = HepG2 cell cytotoxicity, dose response, cytotoxicity control for Shn3 inhibitor project, CellTiter-Glo, cherry-picked (AID 624134); type: functional, cell-based
[3] = control 3'UTR Renilla luciferase suppression, dose response, counter-screen for Shn3 inhibitor project, cell-based, Clone20-Shn3RL, cherry-picked (AID 624133); type: functional
[4] = Fluorescence-based cell-based high throughput dose response assay for inhibitors of the interaction of nucleotide-binding oligomerization domain containing 2 (NOD2) and the receptor-interacting serine-threonine kinase 2 (RIPK2).; type: functional; conditions: Homo sapiens
[5] = target: Beta Lactamase (Pseudomonas aeruginosa, UniProt Q932Y6); experiment: beta-lactamase reporter inhibitor potency, dose response, artefact control for NOD2-RIPK2 interaction inhibitor project, BLA reporter cells, FRET fluorescence (AID 651552); type: functional, cell-based
[6] = target: Paired box protein Pax-8 (Homo sapiens, UniProt Q06710); experiment: inhibitors of PAX8-driven TPO luciferase reporter, dose response, RMG-I cells, cherry-pick (AID 687027); type: functional, cell-based;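 further: luciferase reporter driven by Pax8 target thyroperoxidase promoter measured by SteadyGlo luminescence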
[7] = non-specific cell cytotoxicity, dose response, cytotoxicity control for PAX8 inhibitor project, plate reader, dry powder samples (AID 743021); type: functional, cell-based
[8] = intracellular Trypanosoma cruzi inhibitors in host cells – cell-based, plate reader, cherry-pick samples, set 3, dose response (AID 651818); type: functional;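 further: compounds incubated with infected cells for about four days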
[9] = ADAM10 inhibitors, peptide cleavage, dose response, biochemical, QFRET (AID 743254);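 further: ADAM10 enzyme with the DM2 quenched FRET peptide as substrate; EDANS fluorescence gain as the protease cuts the substrate; inhibitor potency against ADAM10 proteolytic activity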
[10] = target: T1, Disintegrin and metalloproteinase domain-containing protein 17 (Homo sapiens, UniProt P78536); experiment: ADAM17 protease inhibitors, dose response, counter-screen for ADAM10 exosite inhibitor project, biochemical, quenched FRET substrate (AID 743253)
[11] = target: T2, Oxysterols receptor LXR-beta (Homo sapiens, UniProt P55055); type: functional, cell-based;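 further: Cell-based luminescence dose-response assay of agonist activity at LXR, run as a confirmatory counterscreen to a daf-12 agonist screen; HEK293 cells with Gal4-LXR fusion and GAL4-driven luciferase reporter; agonist potency from rising luciferase signal of a Gal4-LXR reporter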
T2 sequence (P55055 whole entry): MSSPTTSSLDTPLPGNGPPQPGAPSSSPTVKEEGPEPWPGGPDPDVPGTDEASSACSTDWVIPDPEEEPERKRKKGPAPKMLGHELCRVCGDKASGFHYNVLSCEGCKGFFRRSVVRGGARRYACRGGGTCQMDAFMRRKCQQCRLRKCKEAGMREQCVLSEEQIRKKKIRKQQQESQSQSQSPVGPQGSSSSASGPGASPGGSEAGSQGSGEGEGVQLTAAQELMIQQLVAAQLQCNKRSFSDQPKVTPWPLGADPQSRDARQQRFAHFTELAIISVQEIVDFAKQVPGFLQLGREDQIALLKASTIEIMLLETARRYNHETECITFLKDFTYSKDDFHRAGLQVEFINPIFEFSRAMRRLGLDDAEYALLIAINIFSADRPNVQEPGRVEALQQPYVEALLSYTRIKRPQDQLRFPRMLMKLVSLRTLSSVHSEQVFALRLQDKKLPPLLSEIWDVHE

[12] = cells
[13] = target: NAD-dependent protein deacylase sirtuin-5, mitochondrial (Homo sapiens, UniProt Q9NXA8); experiment: SIRT5 deacylase inhibitors, dose response, biochemical, fluorescence imaging, cherry-pick, set 6 (AID 720597)
[14] = cells; type: functional, cell-based
[15] = target: T3, Trace amine-associated receptor 1 (Homo sapiens, UniProt Q96RJ0); experiment: Fluorescence-based cell-based high throughput dose response assay to identify agonists of the human trace amine associated receptor 1 (TAAR1).; type: functional
T3 sequence (Q96RJ0 whole entry): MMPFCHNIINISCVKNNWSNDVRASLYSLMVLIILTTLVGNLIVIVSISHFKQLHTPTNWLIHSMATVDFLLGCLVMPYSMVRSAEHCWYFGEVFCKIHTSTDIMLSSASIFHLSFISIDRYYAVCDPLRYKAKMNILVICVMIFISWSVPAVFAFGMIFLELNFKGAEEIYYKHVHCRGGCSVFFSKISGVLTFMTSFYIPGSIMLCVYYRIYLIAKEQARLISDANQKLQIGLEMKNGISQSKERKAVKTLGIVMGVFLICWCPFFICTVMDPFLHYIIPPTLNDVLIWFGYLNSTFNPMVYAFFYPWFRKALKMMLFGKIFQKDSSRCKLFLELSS

[16] = target: T3, Trace amine-associated receptor 1; experiment: Counterscreen for agonists of the human trace amine associated receptor 1 (hTAAR1): Fluorescence-based cell-based high throughput dose response assay to identify hTAAR1 agonist that also desensitize TAAR1 receptor response.; type: functional
[17] = cells; type: functional, cell-based; remark: listed apart in the source
[18] = target: Major prion protein (Homo sapiens, UniProt P04156); type: functional, cell-based
[19] = cells; remark: listed apart in the source
[20] = target: FAD-linked sulfhydryl oxidase ALR (Homo sapiens, UniProt P55789); experiment: inhibitors of human ALR sulfhydryl oxidase, dose response, biochemical, H2O2 detection, luminescence, cherry-pick (AID 493248)
[21] = target: SWI/SNF-related matrix-associated actin-dependent regulator of chromatin subfamily A member 2 (Homo sapiens, UniProt P51531); experiment: Luminescence-based cell-based high throughput dose response assay to identify activators of the function of SWI/SNF related, matrix associated, actin dependent regulator of chromatin, subfamily a, member 2 (SMARCA2, BRM).; type: functional
[22] = Counterscreen for activators of the function of SWI/SNF related, matrix associated, actin dependent regulator of chromatin, subfamily a, member 2 (SMARCA2, BRM): Luminescence-based cell-based high throughput dose response assay to identify non-selective compounds using the VP16 reporter assay.; type: functional
[23] = A375 melanoma cell viability loss, dose response, counter-screen for MITF inhibitor project, CellTiter-Glo luminescence, dry powder, set 4 (AID 624364); type: functional, cell-based; conditions: A-375;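 further: A375 melanoma cells are MITF independent so this is a counter screen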
[24] = A375 melanoma cell cytotoxicity, dose response, counter-screen for MITF inhibitor project, CellTiter-Glo luminescence, dry powder, set 2 (AID 624489); type: functional, cell-based; conditions: A-375;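 further: actives are compounds lowering A375 viability meaning general cytotoxicity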
[25] = IOSE-T80 ovarian epithelial cell cytotoxicity, dose response, cytotoxicity control for PAX8 inhibitor project, plate reader, dry powder samples (AID 743045); type: functional, cell-based
[26] = A2780 ovarian cancer cell cytotoxicity, dose response, cytotoxicity control, plate reader, dry powder samples (AID 743046); type: functional, cell-based
[27] = NIH:OVCAR-3 ovarian cancer cell cytotoxicity, dose response, PAX8 inhibitor project, plate reader, dry powder samples (AID 743044); type: functional, cell-based
[28] = IGROV1 ovarian cancer cell cytotoxicity, dose response, PAX8 inhibitor project, plate reader, dry powder samples (AID 743043); type: functional, cell-based; conditions: IGROV-1
[29] = cytotoxicity in OVCAR8 ovarian cancer cells, dose response, PAX8 project, cell-based, plate reader, dry powder samples (AID 743197); type: functional; conditions: OVCAR-8
[30] = target: Fructose-bisphosphate aldolase (Mycobacterium tuberculosis, UniProt P9WQA3); experiment: Fluorescence-based biochemical high throughput dose response assay for inhibitors of the fructose-bisphosphate aldolase (FBA) of M. tuberculosis.; type: functional
[31] = target: ADP-ribosylation factor GTPase-activating protein 1 (Rattus norvegicus, UniProt Q62848); experiment: Fluorescence polarization-based biochemical high throughput dose response screening assay to identify inhibitors of ADP-ribosylation factor GTPase activating protein 1 (ARFGAP1).; type: functional
[32] = target: Arf-GAP with SH3 domain, ANK repeat and PH domain-containing protein 1 (Homo sapiens, UniProt Q9ULH1); type: functional;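 further: biochemical fluorescence polarization dose–response screen measuring inhibition of ASAP1; ASAP1 GAP domain stimulating GTP hydrolysis by truncated human ARF1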
[33] = NIH-3T3 fibroblast cytotoxicity, dose response, cytotoxicity control, cell-based, fluorescence, Alamar Blue, secondary assay (AID 2327); type: functional;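 further: NIH-3T3 mouse fibroblasts cultured with fluconazole at 8 µg/mL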
[34] = C. albicans growth with fluconazole, confirmation, fluorescence, retest (AID 2467); type: functional, cell-based
[35] = miR-122 activators in hepatoma reporter cells, dose response, cell-based, Huh7 psiCHECK-miR122, Renilla luciferase, cherry-picked (AID 651956); type: functional;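 further: huh7 hepatoma cells stably carrying a psiCHECK-2 miR-122 sensor plasmid; renilla luciferase signal reporting endogenous miR-122 activity after 48 h compound exposure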
[36] = cells; type: functional, cell-based; remark: listed apart in the source
[37] = cells; type: functional, cell-based; remark: listed apart in the source
[38] = target: T1, Disintegrin and metalloproteinase domain-containing protein 17; experiment: exosite inhibitors of ADAM17, dose response, biochemical (AID 743260)

C=C1C(=O)[C@]23C[C@H]1CCC2[C@@]1(C)C(C[C@@H]3O)[C@](C)(C(=O)OC)CC[C@@H]1OC(C)=O (stereo partly specified)
AC50 [1]: 2.14 µM (active) | AC50 [2]: 7.22 µM (active) | AC50 [3]: 3.51 µM (active) | IC50 [4]: 0.917 µM (active) | IC50 [5]: 18 µM (inactive)

C=C1C(=O)[C@]23C[C@H]1CCC2[C@@]1(C)C(C[C@@H]3O)[C@](C)(C(=O)OC)CC[C@@H]1O (stereo partly specified)
AC50 [1]: 2.58 µM (active) | AC50 [2]: 15.8 µM (active) | AC50 [3]: 7.06 µM (active) | IC50 [4]: 2.3 µM (active) | IC50 [5]: 24.2 µM (inactive) | AC50 [6]: 1.71 µM (active) | AC50 [7]: 38.2 µM (active)

C[C@@H]1CCCCO[C@H](CN(C)S(=O)(=O)c2ccc(F)cc2)[C@@H](C)CN([C@H](C)CO)C(=O)c2cc(NC(=O)Nc3ccc(C(F)(F)F)cc3)ccc2O1
AC50 [8]: 3.61 µM (active) | IC50 [9]: > 69.5 µM (inactive) | IC50 [10]: > 69.5 µM (inactive)

N=C(NC(=S)Nc1ccc2c(c1)OCO2)c1ccccc1
EC50 [11]: > 67.5 µM (inactive) | EC50 [12]: > 67.5 µM (inactive)

COc1ccc(NC(=O)N(C)C[C@H]2Oc3ccc(NS(=O)(=O)c4ccc(F)cc4)cc3C(=O)N([C@@H](C)CO)C[C@H]2C)cc1
AC50 [13]: > 30 µM (inactive)

COc1ccc2c(c1)C(SCC(=O)NCCc1ccccc1)CC(C)(C)O2 (stereo unspecified)
IC50 [14]: > 29.9 µM (inactive) | EC50 [15]: 1.04 µM (active) | IC50 [16]: 2.31 µM (active) | EC50 [17]: > 29.9 µM (inactive)

CNc1ncc(C(=O)c2ccc(Cl)cc2)s1
IC50 [18]: 6.92 µM (active) | IC50 [19]: > 138 µM (inactive)

Cc1ccc(O)c(CNc2nc3ccccc3n2C)c1
AC50 [20]: 9.83 µM (active) | EC50 [21]: > 91.2 µM (inactive) | EC50 [22]: > 91.2 µM (inactive)

O=C1C(=C2CCc3ccccc32)Cc2ccccc21
EC50 [11]: > 67.4 µM (inactive) | EC50 [12]: > 67.4 µM (inactive)

O=C1C(NS(=O)(=O)c2ccc(Br)s2)=C(N2CCSCC2)C(=O)c2ccccc21
AC50 [23]: > 70 µM (inactive) | AC50 [24]: > 70 µM (inactive)

O=C(C[C@@H]1C[C@H]2c3cc(NS(=O)(=O)c4ccc(F)cc4)ccc3O[C@H]2[C@H](CO)O1)NCc1ccc(-c2ccccc2)cc1
AC50 [6]: 3.44 µM (active) | AC50 [25]: 17.6 µM (active) | AC50 [26]: 10.6 µM (active) | AC50 [13]: > 30 µM (inactive) | AC50 [27]: 9.15 µM (active) | AC50 [28]: 14.6 µM (active) | AC50 [29]: 14.8 µM (active)

Cc1cc(OC(C)C(=O)NCCCN2CCOCC2)c2c(C)cc(=O)oc2c1 (stereo unspecified)
IC50 [30]: 1.32 µM (active)

CO[C@@H]1CN(C)C(=O)c2cc(NC(=O)c3ccc(-c4ccccc4)cc3)ccc2OC[C@H](C)NC[C@H]1C
AC50 [6]: 25.3 µM (active) | AC50 [26]: 37.2 µM (active) | AC50 [27]: 42.2 µM (active) | AC50 [7]: 40.4 µM (active)

COc1ccc(-n2nnnc2SCC(=O)c2ccc3c(c2)OCCO3)c(OC)c1
IC50 [31]: 17.7 µM (inactive) | IC50 [32]: 12.6 µM (inactive)

COc1ccc(NC(=O)c2ccc([N+](=O)[O-])o2)cc1
EC50 [33]: 28.2 µM (active) | EC50 [34]: 3.55 µM (active) | EC50 [21]: > 91.1 µM (inactive) | EC50 [22]: > 91.1 µM (inactive)

CCOC(=O)c1cnc2ccc(C)cn2c1=O
IC50 [30]: 1.23 µM (active)

CO[C@H]1CN(C)C(=O)c2ccc(NC(C)=O)cc2OC[C@@H](C)N(C(=O)CC2CC2)C[C@H]1C
AC50 [35]: 49.6 µM (active)

COC(=O)c1sc(N=C(S)NNC(=O)c2c(Br)c(C)nn2C)c(C(=O)OC)c1C
IC50 [18]: 1.16 µM (active) | IC50 [19]: > 138 µM (inactive)

O=C(CSC1=NS(=O)(=O)c2ccccc2N1)NCCc1ccccc1
IC50 [14]: > 29.9 µM (inactive) | EC50 [15]: 3.33 µM (active) | IC50 [16]: 6.94 µM (active) | EC50 [17]: > 29.9 µM (inactive)

CCN1CCN(C2=C(N(C)C(C)=O)C(=O)c3ccccc3C2=O)CC1
AC50 [23]: 12.4 µM (active) | AC50 [24]: 6.2 µM (active)

Cc1ccc2nc(SCC(=O)N3CCCCC3)nc(=O)n2c1
EC50 [36]: > 350 µM (not active) | EC50 [37]: > 350 µM (not active) | IC50 [31]: 32 µM (inactive) | IC50 [32]: 45.9 µM (inactive)

COc1ccc(N(CC(O)Cn2c3ccccc3c3ccccc32)S(=O)(=O)c2ccccc2)cc1 (stereo unspecified)
IC50 [9]: > 69.5 µM (inactive) | IC50 [38]: > 69.5 µM (inactive) | IC50 [10]: > 69.5 µM (inactive)
